One test deals with BALB 3T3/H-ras. Briefly: Anti-tumor activity: growth inhibition of BALB 3T3 cells transformed with H-ras (Giemsa staining). The class given is cell-based. The note with it: for IC50: Mus musculus, BALB/3T3, 72 h, read-out: IC50 BALB 3T3/H-ras Inhibitory Activity; for IC50 BALB 3T3/H-ras Inhibitory Activity: growth inhibition, 72 hours, 37° C., Giemsa staining, absorbance at 620 nm. As to the method:
The anti-tumor activity was determined using BALB 3T3 cells transformed with the carcinogenic gene H-ras (hereafter referred to as BALB 3T3/H-ras).
BALB 3T3/H-ras cells were suspended in a medium comprising DME medium (manufactured by Nissui Pharmaceutical Co., Ltd.) and 10% fetal calf serum (hereafter referred to as medium A) to a concentration of 3.0×10^4 /cells ml. The cell suspension thus prepared was put into wells of a 96-well microtiter plate in an amount of 0.1 ml per well. After culturing at 37° C. for 20 hours in a CO2 -incubator, 0.1 ml each of a test solution appropriately diluted with medium A was added to each well. The cells were further cultured at 37° C. for 72 hours in the CO2 -incubator and the culture supernatant was removed. After being washed once with physiological saline, the residue was treated with 0.1 ml of methanol for 10 minutes to fix the cells. Thereafter, the cells were stained with 0.1 ml of Giemsa staining solution [Giemsa staining stock solution (Merck Art 9204; manufactured by Merck Inc.) : physiological saline=1 : 10] for 5 minutes. After the staining solution was removed, the residue was washed once with 0.2 ml of water. The pigment was extracted with 0.2 ml of 0.1 N hydrochloric acid and the absorbance at 620 nm was measured with a microplate reader. By comparing the absorbance of untreated cells with those of the cells treated with the test compound at known concentrations, the concentration of the test compound at which the growth of the cells is inhibited by 50% (IC50) was calculated.

The next test has as its target Protein Kinase C. Briefly: Protein kinase C inhibitory activity (method of Kikkawa et al.; crude enzyme from rat brain, Histone Type II S phosphorylation). It is filed as biochemical. The following applies: crude enzyme partially purified from rat brain; [γ-32P]ATP, 30° C., 3 minutes, pH 7.5. As to the method:
Protein kinase C inhibitory activity
The protein kinase C inhibitory activity was measured by the method of Kikkawa, et al. [Journal of Biological Chemistry, 257, 13341 (1982)].
That is, 10 μl of a test solution containing a UCN-1028D derivative was added to 250 μl of a solution containing 2.5 μmoles of magnesium acetate, 50 μg of Histone Type II S (manufactured by Sigma Co., Ltd.), 20 μg of phosphatidyl serine, 0.8 μg of diolein, 25 nmoles of CaCl2, 5 μg of crude enzyme (partially purified from rat brain according to the method of Kikkawa, et al.) and 5 μmoles of Tris-hydrochloride buffer (pH 7.5), followed by incubation at 30° C. for 3 minutes. Then, phosphorylation was initiated by addition of 1.25 nmoles of [γ-^32 P]ATP (5 to 10×10^3 cpm/nmole), followed by incubation at 30° C. for 3 minutes The reaction was stopped by adding 25% trichloroacetic acid (TCA), and the reaction solution was filtered through a cellulose acetate membrane (pore size: 0.45 μm) (manufactured by Toyo Filter Paper Co., Ltd.). After the membrane was washed four times with 5% TCA, radioactivity remaining on the membrane was measured. As a control, the same procedure as above was repeated without addition of the test solution and radioactivity was likewise measured. The concentration of the test solution showing 50% inhibition as compared with the control was expressed as IC50.

Converted amounts (≈) assume the structure as drawn.

In the case of `COc1c(C[C@@H](C)OC(=O)CCCc2ccccc2)c2c3c(C[C@@H](C)OC(=O)CCCc4ccccc4)c(OC)c(=O)c4c(O)cc(OC)c(c5c(OC)cc(O)c(c1=O)c52)c43` [Compound 11, 14,17-bis-O-4-phenylbutyryl UCN-1028D], in the test with BALB 3T3/H-ras, the IC50 was 2.6 µg/mL (≈ 3.08 µM). Besides, the “IC50 Protein Kinase C Inhibitory Activity” value on Protein Kinase C came out at 0.035 µg/mL (≈ 0.0415 µM).
The matching figures for `COc1c(C[C@@H](C)OC(C)=O)c2c3c(C[C@@H](C)OC(C)=O)c(OC)c(=O)c4c(O)cc(OC)c(c5c(OC)cc(O)c(c1=O)c52)c43` [Compound 1, 14,17-di-O-acetyl UCN-1028D]: 0.048 µg/mL (≈ 0.0756 µM) and 1.6 µg/mL (≈ 2.52 µM).
As for `COc1c(C[C@@H](C)O)c2c3c(C[C@@H](C)O)c(OC)c(=O)c4c(O)cc(OC)c(c5c(OC)cc(O)c(c1=O)c52)c43` [Compound 43, UCN-1028 iso-D], in the test with BALB 3T3/H-ras, the “IC50 BALB 3T3/H-ras Inhibitory Activity” value stood at 1.0 µg/mL (≈ 1.82 µM). Besides, the “IC50 Protein Kinase C Inhibitory Activity” value against Protein Kinase C turned out to be 0.74 µg/mL (≈ 1.34 µM).
In the case of `C=CCCC(=O)O[C@H](C)Cc1c(OC)c(=O)c2c(O)cc(OC)c3c4c(OC)cc(O)c5c(=O)c(OC)c(C[C@@H](C)OC(=O)CCC=C)c(c1c23)c54` [Compound 7, 14,17-di-O-pentenoyl UCN-1028D], in the test with BALB 3T3/H-ras, the IC50 is 0.17 µg/mL (≈ 0.238 µM). The “IC50 Protein Kinase C Inhibitory Activity” value against Protein Kinase C worked out at 0.06 µg/mL (≈ 0.0839 µM).
In the case of `COc1c(C[C@@H](C)OC(=O)c2ccco2)c2c3c(C[C@@H](C)OC(=O)c4ccco4)c(OC)c(=O)c4c(O)cc(OC)c(c5c(OC)cc(O)c(c1=O)c52)c43` [Compound 35, 14,17-di-O-2-furoyl UCN-1028D], in the test with BALB 3T3/H-ras, the IC50 worked out at 0.12 µg/mL (≈ 0.162 µM). On Protein Kinase C, the “IC50 Protein Kinase C Inhibitory Activity” value came out at 0.11 µg/mL (≈ 0.149 µM).
The matching figures for `COc1c(C[C@@H](C)OC(=O)c2ccc([N+](=O)[O-])cc2)c2c3c(C[C@@H](C)OC(=O)c4ccc([N+](=O)[O-])cc4)c(OC)c(=O)c4c(O)cc(OC)c(c5c(OC)cc(O)c(c1=O)c52)c43` [Compound 30, 14,17-bis-O-p-nitrobenzoyl UCN-1028D]: 0.07 µg/mL (≈ 0.0825 µM) and 0.11 µg/mL (≈ 0.13 µM).
The matching figures for `COc1c(C[C@@H](C)OC(=O)[C@H](N)c2ccccc2)c2c3c(C[C@@H](C)OC(=O)[C@H](N)c4ccccc4)c(OC)c(=O)c4c(O)cc(OC)c(c5c(OC)cc(O)c(c1=O)c52)c43` [Compound 16, 14,17-di-O-D-phenylglycyl UCN-1028D bistrifluoroacetate]: 0.72 µg/mL (≈ 0.881 µM) and 0.17 µg/mL (≈ 0.208 µM).
Regarding `COc1c(C[C@@H](C)O)c2c3c(C[C@@H](C)O)c(OC)c(=O)c4c(O)cc(OC)c(c5c(OC)cc(O)c(c1=O)c52)c43` [Compound 45, UCN-1028D], the “IC50 BALB 3T3/H-ras Inhibitory Activity” value in the test on BALB 3T3/H-ras worked out at 2.2 µg/mL (≈ 4 µM). The “IC50 Protein Kinase C Inhibitory Activity” value at Protein Kinase C is 3.5 µg/mL (≈ 6.36 µM).
With `COc1c(C[C@@H](C)OC(=O)c2ccc(C)cc2)c2c3c(C[C@@H](C)OC(=O)c4ccc(C)cc4)c(OC)c(=O)c4c(O)cc(OC)c(c5c(OC)cc(O)c(c1=O)c52)c43` [Compound 29, 14,17-bis-O-p-methylbenzoyl UCN-1028D], the IC50 in the test with BALB 3T3/H-ras turned out to be 0.022 µg/mL (≈ 0.028 µM). The “IC50 Protein Kinase C Inhibitory Activity” value at Protein Kinase C was found to be 0.06 µg/mL (≈ 0.0763 µM).
As for `COc1c(C[C@@H](C)OC(=O)[C@@H](N)CC(C)C)c2c3c(C[C@@H](C)OC(=O)[C@@H](N)CC(C)C)c(OC)c(=O)c4c(O)cc(OC)c(c5c(OC)cc(O)c(c1=O)c52)c43` [Compound 14, 14,17-di-O-L-leucyl UCN-1028D bistrifluoroacetate], in the test with BALB 3T3/H-ras, the IC50 was found to be 0.45 µg/mL (≈ 0.579 µM). The “IC50 Protein Kinase C Inhibitory Activity” value on Protein Kinase C turned out to be 0.21 µg/mL (≈ 0.27 µM).
The matching figures for `COc1c(C[C@@H](C)OC(=O)c2cccc3ccccc23)c2c3c(C[C@@H](C)OC(=O)c4cccc5ccccc45)c(OC)c(=O)c4c(O)cc(OC)c(c5c(OC)cc(O)c(c1=O)c52)c43` [Compound 31, 14,17-di-O-1-naphthoyl UCN-1028D]: 1.5 µg/mL (≈ 1.75 µM) and 0.19 µg/mL (≈ 0.221 µM).
The matching figures for `COc1c(C[C@@H](C)OS(C)(=O)=O)c2c3c(C[C@@H](C)OS(C)(=O)=O)c(OC)c(=O)c4c(O)cc(OC)c(c5c(OC)cc(O)c(c1=O)c52)c43` [Compound 39, 14,17-bis-O-methanesulfonyl UCN-1028D]: 0.35 µg/mL (≈ 0.495 µM) and 0.5 µg/mL (≈ 0.707 µM).
The matching figures for `COc1c(C[C@@H](C)OC(=O)Cc2ccccc2)c2c3c(C[C@@H](C)OC(=O)Cc4ccccc4)c(OC)c(=O)c4c(O)cc(OC)c(c5c(OC)cc(O)c(c1=O)c52)c43` [Compound 9, 14,17-bis-O-phenylacetyl UCN-1028D]: 0.11 µg/mL (≈ 0.14 µM) and 0.054 µg/mL (≈ 0.0686 µM).
For the compound `COc1c(C[C@@H](C)OC(=O)Oc2ccccc2)c2c3c(C[C@@H](C)OC(=O)Oc4ccccc4)c(OC)c(=O)c4c(O)cc(OC)c(c5c(OC)cc(O)c(c1=O)c52)c43` [Compound 38, 14,17-bis-O-phenyloxycarbonyl UCN-1028D], in the test on BALB 3T3/H-ras, the IC50 was determined as 0.015 µg/mL (≈ 0.019 µM). The “IC50 Protein Kinase C Inhibitory Activity” value on Protein Kinase C is 0.058 µg/mL (≈ 0.0733 µM).
The matching figures for `COc1c(C[C@@H](C)OC(=O)C2CCCCC2)c2c3c(C[C@@H](C)OC(=O)C4CCCCC4)c(OC)c(=O)c4c(O)cc(OC)c(c5c(OC)cc(O)c(c1=O)c52)c43` [Compound 8, 14,17-di-O-cyclohexanecarbonyl UCN-1028D]: 0.56 µg/mL (≈ 0.726 µM) and 0.017 µg/mL (≈ 0.0221 µM).
Regarding `CCCCCC(=O)O[C@H](C)Cc1c(OC)c(=O)c2c(O)cc(OC)c3c4c(OC)cc(O)c5c(=O)c(OC)c(C[C@@H](C)OC(=O)CCCCC)c(c1c23)c54` [Compound 3, 14,17-di-O-hexanoyl UCN-1028D], the IC50 in the test on BALB 3T3/H-ras amounted to 0.12 µg/mL (≈ 0.161 µM). Moreover, the “IC50 Protein Kinase C Inhibitory Activity” value against Protein Kinase C came to 0.035 µg/mL (≈ 0.0469 µM).
The matching figures for `COc1c(C[C@@H](C)OS(=O)(=O)c2ccc(C)cc2)c2c3c(C[C@@H](C)OS(=O)(=O)c4ccc(C)cc4)c(OC)c(=O)c4c(O)cc(OC)c(c5c(OC)cc(O)c(c1=O)c52)c43` [Compound 40, 14,17-bis-O-p-toluenesulfonyl UCN-1028D]: 0.04 µg/mL (≈ 0.0466 µM) and 0.066 µg/mL (≈ 0.0768 µM).
Regarding `COc1c(C[C@@H](C)OC(=O)c2ccncc2)c2c3c(C[C@@H](C)OC(=O)c4ccncc4)c(OC)c(=O)c4c(O)cc(OC)c(c5c(OC)cc(O)c(c1=O)c52)c43` [Compound 33, 14,17-di-O-isonicotinyl UCN-1028D], the IC50 with BALB 3T3/H-ras came to 0.038 µg/mL (≈ 0.05 µM). Besides, on Protein Kinase C, the “IC50 Protein Kinase C Inhibitory Activity” value is 0.15 µg/mL (≈ 0.197 µM).
On to `COc1c(C[C@@H](C)OC(=O)OCc2ccccc2)c2c3c(C[C@@H](C)OC(=O)OCc4ccccc4)c(OC)c(=O)c4c(O)cc(OC)c(c5c(OC)cc(O)c(c1=O)c52)c43` [Compound 37, 14,17-bis-O-benzyloxycarbonyl UCN-1028D], for which, in the test on BALB 3T3/H-ras, the IC50 amounted to 0.04 µg/mL (≈ 0.0489 µM). For the same compound, at Protein Kinase C, the “IC50 Protein Kinase C Inhibitory Activity” value was 0.052 µg/mL (≈ 0.0635 µM).
For the compound `COc1c(C[C@@H](C)OC(=O)Cc2cccc3ccccc23)c2c3c(C[C@@H](C)OC(=O)Cc4cccc5ccccc45)c(OC)c(=O)c4c(O)cc(OC)c(c5c(OC)cc(O)c(c1=O)c52)c43` [Compound 12, 14,17-bis-O-1-naphthylacetyl UCN-1028D], the IC50 in the test on BALB 3T3/H-ras amounted to 1.3 µg/mL (≈ 1.47 µM). In addition, at Protein Kinase C, the “IC50 Protein Kinase C Inhibitory Activity” value was determined as 0.05 µg/mL (≈ 0.0564 µM).

The values above are taken from patent publication US5140044A, “UCN-1028D derivatives” (Kyowa Hakko Kogyo Co., Ltd., priority 1989, dated 1992).
